Data: patent US20160214983A1, “3,7-DIAZABICYCLO[3.3.1]NONANE CARBOXAMIDES AS ANTITHROMBOTIC AGENTS” (COUNCIL OF SCIENTIFIC & INDUSTRIAL RESEARCH, priority 2013, published 2016)

What was measured:
human platelets [1] = experiment: Arachidonic acid induced platelet aggregation (COX pathway); assay type: cell-based
human plasma = experiment: Coagulability of blood by TT, PT and aPTT in human plasma
[2] = Tail bleeding time in mice
[3] = system: collagen plus epinephrine induced pulmonary thromboembolism; experiment: Collagen-epinephrine induced pulmonary thromboembolism in mice; assay type: in vivo
Description: To assess the antithrombotic efficacy of compounds, mice were grouped into vehicle, aspirin and compound treated groups, and each group included ten animals. Pulmonary thromboembolism was induced by injecting a mixture of collagen (150 μg/ml) and adrenaline (50 μg/ml) into the tail vein to achieve final doses of collagen (1.5 mg/kg) and adrenaline (0.5 mg/kg) to induce hind limb paralysis or death.^11, 12 Number of test animals killed or paralyzed were evaluated (death/paralysis were employed as endpoint to evaluate antithrombotic agents). The percent protection was calculated by taking the ratio of number of test animals killed or paralyzed to that of total tested animals. Results have been reported as percentage protection, which represents protection against collagen and epinephrine induced thromboembolism and expressed as;
Percent Protection=[1−(Ptest/Pcontrol)]×100
Where, Ptest is the number of animals paralyzed/dead in test compound-treated group, and Pcontrol is the total number of animals paralyzed/dead in vehicle treated group. The percent protection refers to the number of animals in compound treated group that were prevented from paralysis/death.

human platelets [4] = experiment: ADP induced platelet aggregation; assay type: cell-based; settings: up to 300 μM
human platelets [5] = experiment: U46619 (thromboxane receptor agonist) induced platelet aggregation; assay type: cell-based
human platelets [6] = experiment: TRAP (thrombin mimetic SFLLRN) induced platelet aggregation; assay type: cell-based; settings: up to 300 μM
human platelets [7] = experiment: Collagen related peptide (CRP-XL) induced platelet aggregation; assay type: cell-based; settings: up to 300 μM
[8] = system: ferric chloride induced arterial thrombosis; experiment: FeCl3 induced carotid artery thrombosis in mice; assay type: in vivo
Description: Male Swiss albino mice were anesthetized byurethane (1.25 g/kg, i.p.). The carotid artery was carefully dissected and a pulsed Doppler Probe (LDF 100C, BioPac, USA) was placed around it to record the blood flow velocity and patency of the blood vessels. The carotid artery thrombosis was induced by FeCl3 as follows: a square (1×0.5 mm) of Whatman Chromatography paper was immersed in 10% FeCl3 solution for 5 min and placed on the carotid artery as described earlier. (Kurz K D, et al., Thromb Res 1990; 60(4):269-80; Surin W R et al J Pharmacol Toxicol Methods. 2010; 61(3):287-91) Thrombosis was monitored as the reduction in carotid artery blood flow. The time at which the blood-flow velocity was decreased to zero was recorded as the time to occlusion (TTO) of the carotid artery.

human platelets [9] = experiment: Ristocetin induced platelet aggregation; assay type: cell-based; settings: up to 300 μM

SMILES: O=C([C@@H]1CCC(=O)N1Cc1ccccc1Br)N1CC2CC(CN(Cc3ccccc3)C2)C1 [Compound 1d, 5-(7-Benzyl-3,7-diaza-bicyclo[3.3.1]nonane-3-carbonyl)-1-(2-bromo-benzyl)-pyrrolidin-2-one]
- inhibition of arachidonic acid induced platelet aggregation (human platelets [1]; 30 μM): did not exhibit any inhibition
- attenuation of arachidonic acid induced platelet aggregation (human platelets [1]; 300 μM and 500 μM): ≤ 50%
- coagulability of blood as assessed by TT, PT and aPTT (human plasma): did not alter the coagulability of blood
- effect on bleeding tendency ([2]; 1 hr after oral dosing, compared against aspirin and clopidogrel): mild effect
- bleeding time ([2]; after 4 hrs (oral), method doses aspirin 170 μM/kg, Clopidogrel 70 μM/kg): 8.4 min
- inhibition in vivo at 30 µM, 30 µmol/kg ([3]; Mus musculus, po, 1 h, read-out: Protection (%)): 40%
- protection in collagen-epinephrine induced pulmonary thromboembolism ([3]; mice, after 4 hours (p.o.), 30 μM/kg): ≤ 60%
- effect against ADP induced platelet aggregation (human platelets [4]): did not exhibit any significant effect
- inhibition at 30 µM (human platelets [5]): 75.5 ± 6%
- effect against TRAP induced platelet aggregation (human platelets [6]): did not exhibit any significant effect
- effect against CRP-XL induced platelet aggregation (human platelets [7]): did not exhibit any significant effect
- prolongation of time to occlusion vs control ([8]; 4 hr after oral administration): 2.2 fold
- time to occlusion (TTO) of carotid artery ([8]; 1d 4 hr after oral administration, control 9.5±0.4 min): 19.2 ± 0.9 min
- effect against Ristocetin induced platelet aggregation (human platelets [9]): did not exhibit any significant effect
